Columns and labels:
c-Raf-1 = target: T1, c-Raf-1 (Homo sapiens, UniProt P04049); assay: c-Raf-1 protein kinase assay; type: biochemical; parameters: dose or concentration left out as unconfirmed
T1 construct: made in house; host or cells: Sf21 insect cells, triple baculovirus infection (GST-c-Raf-1, v-Ras, v-Src)
Method: c-Raf-1 protein kinase assay: Recombinant c-Raf-1 protein is obtained by triple infection of Sf21 cells with GST-c-Raf-1 recombinant baculovirus together with v-Src and v-Ras recombinant baculoviruses that are required for active c-Raf-1 kinase production (Williams et al., PNAS 1992; 89:2922-6). Active Ras (v-Ras) is required to recruit c-Raf-1 to the cell membrane and v-Src to phosphorylate c-Raf-1 to fully activate it. Cells are seeded at 2.5×10^7 cells per 150 mm dish and allowed to attach to a 150 mm dish for 1 hr at RT. Media (SF900II containing 10% FBS) is aspirated and recombinant baculovirus GST-c-Raf-1, v-Ras and v-Src are added at MOI of 3.0, 2.5 and 2.5, respectively, in a total volume of 4-5 mL. Cells are incubated for 1 hr at RT and then 15 mL of medium is added. Infected cells are incubated for 48-72 hr at 27° C. Infected Sf21 cells are scraped and collected into a 50 mL tube and centrifuged for 10 min at 4° C. at 1100 g in a Sorvall centrifuge. The cell pellet is washed once with ice cold PBS and lysed with 0.6 mL lysis buffer per 2.5×10^7 cells. Complete lysis of cells is achieved after 10 min on ice with occasional pipetting. The cell lysates are centrifuged for 10 min at 4° C. at 14,500 g in a Sorvall centrifuge with SS-34 rotor and the supernatant is transferred to a fresh tube and stored at −80° C. c-Raf-1 is purified from cell lysates using 100 μL of packed glutathione-sepharose 4B beads equilibrated in ice cold PBS per 2.5×10^7 cells. GST-c-Raf-1 is allowed to bind to the beads at 4° C. for 1 hr with rocking. Bound GST-c-Raf-1 with beads is transferred to a column. The column is washed once with lysis buffer and twice with ice cold Tris buffered saline. Ice cold elution buffer is added and column flow is stopped to allow the free glutathione to disrupt the interaction of GST-c-Raf-1 with glutathione sepharose beads. Fractions (1 mL) are collected into pre-chilled tubes. Each tube contains 10% glycerol (final concentration) to maintain kinase activity during freeze thaw cycles. Purified fractions of GST-c-Raf-1 kinase protein are stored at −80° C.
IκB is used as substrate for the c-Raf-1 kinase. IκB is expressed in bacteria as a His-tagged protein BL21. LysS bacteria containing the IκB plasmid are grown to an OD600 of 0.6 in LB medium, then induced to express the IκB with IPTG (final concentration of 1 mM) for 3 hrs at 37° C. and then bacteria are lysed by sonication (microtip limit setting for 3 times at 1 min each in sonication buffer [50 mM Tris pH 8.0, 1 mM DTT, 1 mM EDTA] and centrifuged at 10,000 g for 15 min. The supernatant is mixed with ammonium sulfate to give a final concentration of 30%. This mixture is rocked for 15 min at 4 C then spun at 10,000 g for 15 min. The pellet is resuspended in binding buffer (Novagen) containing 10 mM BSA. This solution is applied to Ni-agarose (Novagen) and washed according to the Novagen manual. IκB is eluted from the column using elution buffer (0.4 M imidazole, 0.2 M NaCl, 8 mM Tris pH 7.9). Fractions containing protein are dialysed in 50 mM Tris pH 8, 1 mM DTT. The activity of c-Raf-1 protein kinase is assayed in the presence or absence of inhibitors, by measuring the incorporation of ^33P from [γ^33P] ATP into IκB. The assay is carried out in 96-well plates at ambient temperature for 60 min. It contains (total volume of 30 μL): c-Raf-1 kinase (400 ng), 25 mM Tris.HCl, pH 7.5, 5 mM MgCl2, 5 mM MnCl2, 10 μM Na3VO4, 1 mM DTT and 0.3 μCi/assay [γ^33P]-ATP (10 μM ATP) using 600 ng IκB in the presence of 1% DMSO. Reactions are terminated by adding 10 μL of 250 mM EDTA and 30 μL of the reaction mixture is transferred onto Immobilon-PVDF membrane (Millipore, Bedford, Mass., USA) previously soaked for 5 min with methanol, rinsed with water, then soaked for 5 min with 0.5% H3PO4 and mounted on vacuum manifold with disconnected vacuum source. After spotting all samples, vacuum is connected and each well rinsed with 200 μL 0.5% H3PO4. […]

EGF-R (HER-1) = EGF-R (HER-1) (Homo sapiens, UniProt P00533); assay: Inhibition of the tyrosine kinase activity of EGF-R (HER-1); type: biochemical; parameters: dose or concentration left out as unconfirmed
[1] = target: c-erbB2 tyrosine kinase (HER-2) (Homo sapiens, UniProt P04626); assay: Inhibition of c-erbB2 tyrosine kinase (HER-2); type: biochemical; parameters: dose or concentration left out as unconfirmed
Excerpt: The inhibition of c-erbB2 tyrosine kinase (HER-2) can be measured, for example, in the same way as the inhibition of EGF-R protein kinase, using known procedures.

Compound	c-Raf-1/ %-inh. [%] (c-Raf-1)	HER-1/ %-inh. [%] (EGF-R (HER-1))	HER-2/%-inh. [%] [1] [%]	melting point [°C]
CN1CCN(C(=O)c2ccc(-c3cc4c(N(C)C)ncnc4[nH]3)cc2)CC1 [Example 3, [4-(4-Dimethylamino-7H-pyrrolo[2,3-d]pyrimidin-6-yl)-phenyl]-(4-methyl-piperazin-1-yl)-methanone]	51	59	78	275 to 277
CN1CCN(Cc2ccc(-c3cc4c(N(C)C)ncnc4[nH]3)cc2)CC1 [Example 4, Dimethyl-{6-[4-(4-methyl-piperazin-1-ylmethyl)-phenyl]-7H-pyrrolo[2,3-d]pyrimidin-4-yl}-amine]	40	64	87	252 to 254
CCN(CC)CCCNC(=O)c1ccc(-c2cc3c(N(C)C)ncnc3[nH]2)cc1 [Example 5, N-(3-Diethylamino-propyl)-4-(4-dimethylamino-7H-pyrrolo[2,3-d]pyrimidin-6-yl)-benzamide]	48	58	78	–
CN(C)c1ncnc2[nH]c(-c3ccc(C(=O)N4CCOCC4)cc3)cc12 [Example 6, [4-(4-Dimethylamino-7H-pyrrolo[2,3-d]pyrimidin-6-yl)-phenyl]-morpholin-4-yl-methanone]	63	70	80	316 to 318
CN(C)c1ncnc2[nH]c(-c3ccc(C(=O)NCCCN4CCOCC4)cc3)cc12 [Example 7, 4-(4-Dimethylamino-7H-pyrrolo[2,3-d]pyrimidin-6-yl)-N-(3-morpholin-4-yl-propyl)-benzamide]	–	59	71	260 to 262
CNc1ncnc2[nH]c(-c3ccc(C(=O)N4CCN(C)CC4)cc3)cc12 [Example 12, [4-(4-Methylamino-7H-pyrrolo[2,3-d]pyrimidin-6-yl)-phenyl]-(4-methyl-piperazin-1-yl)-methanone]	22	85	85	315
CN1CCN(C(=O)c2ccc(-c3cc4c(NCCCO)ncnc4[nH]3)cc2)CC1 [Example 15, {4-[4-(3-Hydroxy-propylamino)-7H-pyrrolo[2,3-d]pyrimidin-6-yl]-phenyl}-(4-methyl-piperazin-1-yl)-methanone]	64	94	88	302 to 305
CNc1ncnc2[nH]c(-c3ccc(CN4CCN(C)CC4)cc3)cc12 [Example 16, Methyl-{6-[4-(4-methyl-piperazin-1-ylmethyl)-phenyl]-7H-pyrrolo[2,3-d]pyrimidin-4-yl}-amine]	67	94	93	–
CCCNc1ncnc2[nH]c(-c3ccc(C(=O)N4CCN(C)CC4)cc3)cc12 [Example 17, (4-Methyl-piperazin-1-yl)-[4-(4-propylamino-7H-pyrrolo[2,3-d]pyrimidin-6-yl)-phenyl]-methanone]	100	95	87	302 to 305
CCCNc1ncnc2[nH]c(-c3ccc(CN4CCN(C)CC4)cc3)cc12 [Example 18, {6-[4-(4-Methyl-piperazin-1-ylmethyl)-phenyl]-7H-pyrrolo[2,3-d]pyrimidin-4-yl}-propyl-amine]	100	98	94	232 to 234
CCCN(C)c1ncnc2[nH]c(-c3ccc(CN4CCN(C)CC4)cc3)cc12 [Example 19, Methyl-{6-[4-(4-methyl-piperazin-1-ylmethyl)-phenyl]-7H-pyrrolo[2,3-d]pyrimidin-4-yl}-propyl-amine]	100	97	89	–
CN(C)c1ncnc2[nH]c(-c3ccc(Cn4ccnc4)cc3)cc12 [Example 24, [6-(4-Imidazol-1-ylmethyl-phenyl)-7H-pyrrolo[2,3-d]pyrimidin-4-yl]-dimethylamine]	100	93	93	–
CN(C)c1ncnc2[nH]c(-c3ccc(Cc4ccc[nH]4)cc3)cc12 [Example 25, Dimethyl-{6-[4-(1H-pyrrol-2-ylmethyl)-phenyl]-7H-pyrrolo[2,3-d]pyrimidin-4-yl}-amine]	96	57	39	285 to 287
CN(C)c1ncnc2[nH]c(-c3ccc(Cn4cnnn4)cc3)cc12 [Example 27, Dimethyl-[6-(4-tetrazol-1-ylmethyl-phenyl)-7H-pyrrolo[2,3-d]pyrimidin-4-yl]-amine]	100	83	75	275 to 278
CN(C)c1ncnc2[nH]c(-c3ccc(CNCCCO)cc3)cc12 [Example 28, 3-[4-(4-Dimethylamino-7H-pyrrolo[2,3-d]pyrimidin-6-yl)-benzylamino]-propan-1-ol]	80	85	85	218 to 220
CNc1ncnc2[nH]c(-c3ccc(C(C)(C)O)cc3)cc12 [Example 35, 2-[4-(4-Methylamino-7H-pyrrolo[2,3-d]pyrimidin-6-yl)-phenyl]-propan-2-ol]	44	90	–	280 to 283
[4-(4-Methylamino-7H-pyrrolo[2,3-d]pyrimidin-6-yl)-phenyl]-morpholin-4-yl-methanone [Example 2]	56	78	65	–
